From PMC6114901, “An automated screening method for detecting compounds with goitrogenic activity using transgenic zebrafish embryos” (PLoS ONE, 2018)
Like-named read-outs stand apart in the source and are kept apart here.

System: zebrafish embryos
Assay: in vivo
Settings: for LC10: unit not given, in µM; for Slope: mortality concentration-response curve
Method: Fish embryo acute toxicity tests were performed similar as described previously, using 10 or 25 embryos per concentration and replicate exposed in crystallization dishes from 48 to 120 hpf. No exchange of exposure media was performed. Lethality was identified by coagulation, missing heartbeat, a non–detached tail and/or missing of somites. Raw data for mortality and phenotypic assessment are provided as S1 Table. Concentration-response curves for mortality are shown in S2 Fig.

[1] = 72 hpf, 77.18 µmol/L, replicate 2, 11 embryos
[2] = 72 hpf, 115.76 µmol/L, replicate 2, 9 embryos
[3] = 72 hpf, 173.64 µmol/L, replicate 2, 8 embryos
[4] = 72 hpf, 260.47 µmol/L, replicate 2, 10 embryos
[5] = 72 hpf, 390.70 µmol/L, replicate 2, 10 embryos
[6] = 120 hpf, 25 µmol/L, replicate 1, 25 embryos
[7] = 120 hpf, 50 µmol/L, replicate 1, 25 embryos
[8] = 120 hpf, 77.18 µmol/L, replicate 2, 11 embryos
[9] = 120 hpf, 100 µmol/L, replicate 1, 25 embryos
[10] = 120 hpf, 115.76 µmol/L, replicate 2, 9 embryos
[11] = 120 hpf, 173.64 µmol/L, replicate 2, 9 embryos
[12] = 120 hpf, 200 µmol/L, replicate 1, 25 embryos
[13] = 120 hpf, 260.47 µmol/L, replicate 2, 10 embryos
[14] = 120 hpf, 390.70 µmol/L, replicate 2, 10 embryos
[15] = 120 hpf, 400 µmol/L, replicate 1, 25 embryos
[16] = mortality after 48 h of exposure, S2 Fig
[17] = mortality after 72 h of exposure, S2 Fig
[18] = sheet DCA 96 hpf (head prints 72 hpf), 77.18 µmol/L, replicate 2, 10 embryos
[19] = sheet DCA 96 hpf (head prints 72 hpf), 115.76 µmol/L, replicate 2, 9 embryos
[20] = sheet DCA 96 hpf (head prints 72 hpf), 173.64 µmol/L, replicate 2, 8 embryos
[21] = sheet DCA 96 hpf (head prints 72 hpf), 260.47 µmol/L, replicate 2, 10 embryos
[22] = sheet DCA 96 hpf (head prints 72 hpf), 390.70 µmol/L, replicate 2, 10 embryos
[23] = 72 hpf, 15000 µmol/L, replicate 2, 10 embryos
[24] = 72 hpf, 30000 µmol/L, replicate 2, 10 embryos
[25] = 72 hpf, 50000 µmol/L, replicate 1, 10 embryos
[26] = 72 hpf, 100000 µmol/L, replicate 1, 10 embryos
[27] = 96 hpf, 20000 µmol/L, replicate 2, 10 embryos
[28] = 96 hpf, 25000 µmol/L, replicate 2, 10 embryos
[29] = 96 hpf, 30000 µmol/L, replicate 2, 10 embryos
[30] = 96 hpf, 50000 µmol/L, replicate 1, 10 embryos
[31] = 96 hpf, 50000 µmol/L, replicate 2, 10 embryos
[32] = 96 hpf, 100000 µmol/L, replicate 1, 10 embryos
[33] = 120 hpf, 10000 µmol/L, replicate 1, 10 embryos
[34] = 120 hpf, 15000 µmol/L, replicate 2, 10 embryos
[35] = 120 hpf, 20000 µmol/L, replicate 2, 10 embryos
[36] = 120 hpf, 25000 µmol/L, replicate 1, 10 embryos
[37] = 120 hpf, 25000 µmol/L, replicate 2, 10 embryos
[38] = 120 hpf, 30000 µmol/L, replicate 2, 10 embryos
[39] = 120 hpf, 40000 µmol/L, replicate 2, 10 embryos
[40] = 120 hpf, 50000 µmol/L, replicate 1, 10 embryos
[41] = 120 hpf, 50000 µmol/L, replicate 2, 10 embryos
[42] = 120 hpf, 100000 µmol/L, replicate 1, 10 embryos

Nc1ccc(Cl)c(Cl)c1 [3,4-DCA, 3,4-dichloroaniline]
4: Sublethal effects mch [2] | Sublethal effects mch [3] | No hatched [4] | Sublethal effects Total Sublethal [4] | Sublethal effects tip [4] | No Surviving [7] | Sublethal effects mch [8] | No hatched [13] | No hatched [14] | No hatched [21] | Sublethal effects EdY / EdP [21] | Sublethal effects Total Sublethal [21] | Sublethal effects nobc [21] | Sublethal effects nomov [21] | Sublethal effects tip [21] | No hatched [22]
3: No hatched [5] | Sublethal effects mch [5] | Sublethal effects tip [5] | Lethal effects k/f [6] | No Surviving [10] | Lethal effects k/f [11] | Lethal effects nohb [11] | No Surviving [11] | Sublethal effects EdY / EdP [11] | Sublethal effects nobc [11] | Sublethal effects nomov [11] | Sublethal effects tip [11]
2: Sublethal effects mch [4] | Sublethal effects EdY / EdP [10] | Sublethal effects nobc [10] | Sublethal effects nomov [10] | Sublethal effects tip [10] | Lethal effects nohb [14] | Sublethal effects mch [18] | Sublethal effects mch [21]
25: Lethal effects k/f [9] | Lethal effects k/f [12] | Lethal effects k/f [15]
55.5: Slope (48 h of exposure)
22: No Surviving [6]
5: Lethal effects k/f [13] | Lethal effects nohb [13] | Sublethal effects mch [19] | Sublethal effects nomov [19]
0: No Surviving [9] | No Surviving [12] | No Surviving [13] | No Surviving [14] | No Surviving [15] | No Surviving [22]
8: No Surviving [3] | No hatched [8] | Sublethal effects EdY / EdP [8] | Sublethal effects Total Sublethal [8] | Sublethal effects nobc [8] | Sublethal effects nomov [8] | Sublethal effects tip [8] | No hatched [10] | Lethal effects k/f [14] | No hatched [18] | Sublethal effects Total Sublethal [18] | Sublethal effects tip [18] | No hatched [19] | Sublethal effects Total Sublethal [19] | Sublethal effects tip [19] | No Surviving [20]
1.53: Slope (72 h of exposure)
10: No Surviving [4] | No Surviving [5] | Sublethal effects EdY / EdP [5] | Sublethal effects Total Sublethal [5] | No Surviving [18] | No Surviving [21]
1: Sublethal effects EdY / EdP [4] | Sublethal effects mch [10] | Sublethal effects Ydef [11] | Sublethal effects mch [11] | Sublethal effects Ydef [20] | Lethal effects k/f [22]
6: Lethal effects k/f [10] | Sublethal effects EdY / EdP [18] | Sublethal effects mch [20]
7: No hatched [2] | Sublethal effects Total Sublethal [2] | Sublethal effects tip [2] | No hatched [3] | Sublethal effects Total Sublethal [3] | Sublethal effects tip [3]
306: LC10 [16]
9: No hatched [1] | Sublethal effects Total Sublethal [1] | Sublethal effects tip [1] | No Surviving [2] | No hatched [11] | No Surviving [19] | Sublethal effects Total Sublethal [20] | Sublethal effects nobc [20] | Sublethal effects nomov [20] | Sublethal effects tip [20] | Lethal effects nohb [22]
21: Lethal effects k/f [7]
11: No Surviving [1] | No Surviving [8]
14.1: LC10 [17]

[K+].[O-][Cl+3]([O-])([O-])[O-] [Potassium perchlorate, potassium perchlorate]
5: Sublethal effects beh [26] | No Surviving [30] | Lethal effects nohb [34] | Sublethal effects Total Sublethal [34] | Sublethal effects mtail [34] | No Surviving [41] | Sublethal effects Total Sublethal [41] | Sublethal effects nobc [41]
10862: LC10 [16]
50.3 mM: LC50 (mortality after 48 h of exposure, S2 Fig, unit inferred)
3232: LC10 [17]
10: No Surviving (72 hpf, 1000 µmol/L, replicate 1, 10 embryos) | No Surviving (72 hpf, 5000 µmol/L, replicate 1, 10 embryos) | No Surviving (72 hpf, 10000 µmol/L, replicate 1, 10 embryos) | No Surviving [23] | No Surviving (72 hpf, 20000 µmol/L, replicate 2, 10 embryos) | No Surviving (72 hpf, 25000 µmol/L, replicate 1, 10 embryos) | No Surviving (72 hpf, 25000 µmol/L, replicate 2, 10 embryos) | No Surviving (72 hpf, 40000 µmol/L, replicate 2, 10 embryos) | No Surviving (72 hpf, 50000 µmol/L, replicate 2, 10 embryos) | No Surviving (96 hpf, 1000 µmol/L, replicate 1, 10 embryos) | No Surviving (96 hpf, 5000 µmol/L, replicate 1, 10 embryos) | No Surviving (96 hpf, 10000 µmol/L, replicate 1, 10 embryos) | No Surviving (96 hpf, 15000 µmol/L, replicate 2, 10 embryos) | No Surviving (96 hpf, 25000 µmol/L, replicate 1, 10 embryos) | No Surviving (96 hpf, 40000 µmol/L, replicate 2, 10 embryos) | Lethal effects nohb [32] | Sublethal effects nobc [32] | No Surviving (120 hpf, 1000 µmol/L, replicate 1, 10 embryos) | No Surviving (120 hpf, 5000 µmol/L, replicate 1, 10 embryos) | Lethal effects nohb [42]
6: Lethal effects nohb [28] | No Surviving [35] | Sublethal effects Total Sublethal [35] | Sublethal effects nobc [35] | No Surviving [40] | Sublethal effects Total Sublethal [40] | Sublethal effects nobc [40]
1: Sublethal effects mtail [23] | Lethal effects k/f [24] | Sublethal effects tip [25] | Lethal effects nohb [26] | Sublethal effects Total Sublethal [27] | Sublethal effects mtail [27] | Lethal effects k/f [29] | Lethal effects k/f [30] | Sublethal effects nomov [30] | Sublethal effects tip [30] | Lethal effects k/f [31] | Lethal effects nohb [33] | Sublethal effects EdY / EdP [33] | Sublethal effects Total Sublethal [33] | Lethal effects k/f [34] | No Surviving [36] | Sublethal effects Total Sublethal [36] | Sublethal effects nobc [36] | Lethal effects k/f [38] | Lethal effects k/f [39] | Lethal effects nohb [41]
7: No Surviving [25] | No Surviving [27] | No Surviving [39] | Sublethal effects Total Sublethal [39] | Sublethal effects nobc [39]
3: Lethal effects k/f [25] | Sublethal effects nomov [26] | Lethal effects nohb [27] | Sublethal effects Total Sublethal [30]
0.944: Slope (72 h of exposure)
1.43: Slope (48 h of exposure)
4: No Surviving [28] | Sublethal effects Total Sublethal [28] | Sublethal effects nobc [28] | Lethal effects nohb [30] | No Surviving [34] | Lethal effects k/f [35] | Lethal effects k/f [37] | No Surviving [37] | Sublethal effects Total Sublethal [37] | Sublethal effects nobc [37] | Lethal effects nohb [40] | Lethal effects k/f [41]
8: Sublethal effects Total Sublethal [26]
0: No Surviving [32] | No Surviving [42]
33.1 mM: LC50 (mortality after 72 h of exposure, S2 Fig, unit inferred) | LC50 (read-out: LC50 (48–120 hpf), mortality, embryos exposed 48–120 hpf)
2: Sublethal effects nobc [30] | Lethal effects nohb [37] | Lethal effects nohb [39]
9: No Surviving [24] | No Surviving [26] | Lethal effects nohb [29] | No Surviving [31] | No Surviving [33] | Lethal effects nohb [36] | No Surviving [38] | Sublethal effects Total Sublethal [38] | Sublethal effects nobc [38]
